# Results from patent US20230081426A1, “COMPOUNDS AND METHODS FOR KRAS MODULATION AND INDICATIONS THEREFOR” (Plexxikon Inc., priority 2020, published 2023).
# Where two headings read alike, the source gives them in different places.
# Assays:
# [1] = molecular target: T1, G12C-mutant human KRAS (amino acid residues 1-188) (Homo sapiens, UniProt P01116, G12C); test: KRAS Binding Disruption Assay (AlphaScreen; biotinylated KRpep-2d analogue or RAF1-RBD), G12C; conditions: geometric mean, read-out: KRAS GMean IC50 (uM) MUTATION: G12C
# T1 construct: G12D or G12C-mutant human KRAS (amino acid residues 1-188) with FLAG tag; made in house; host or cells: E. coli
# Method: Compound binding disrupts the interaction of KRpep-2d or RAF1-RBD with KRAS, leading to a decrease in Alpha signal.
# All assay components were prepared in 20 mM HEPES (pH 7.5), 100 mM NaCl, 5 mM MgCl2, 0.01% Tween-20, and 0.01% BSA. Biotinylated analogues of KRpep-2d were custom synthesized. The binding disruption assays were performed using 5-20 nM of mutant KRAS and 5-20 nM of either biotinylated KRpep-2d analogue or RAF1-RBD. 19 μL of KRAS protein and 4 μL of biotinylated KRpep-2d or RAF1-RBD were added to the wells of a 384-well plate containing 1 μL of various concentrations of test compound or DMSO vehicle. 16 wells containing KRAS, biotinylated KRpep-2d or RAF1-RBD, and 5% DMSO served as high controls. 16 wells containing KRAS only and 5% DMSO served as low controls. Binding reactions were incubated for 1 hour at 25° C., then Anti-Flag Acceptor and Streptavidin Donor Alpha beads were added at a final concentration of 10 μg/mL for an additional hour at room temperature. Alpha signal was read out on a Perkin Elmer Envision HTS instrument. The percentage inhibition at individual compound concentrations relative to high and low controls was calculated. The data were analyzed by using nonlinear regression to generate IC50 values.
# [2] = molecular target: T2, G12D-mutant human KRAS (amino acid residues 1-188) (Homo sapiens, UniProt P01116, G12D); test: KRAS Binding Disruption Assay (AlphaScreen; biotinylated KRpep-2d analogue or RAF1-RBD), G12D; conditions: for IC50: geometric mean, read-out: KRAS GMean IC50 (uM) MUTATION: G12D
# T2 construct: G12D or G12C-mutant human KRAS (amino acid residues 1-188) with FLAG tag; made in house; host or cells: E. coli
# Method in brief: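 AlphaScreen readout: signal falls as compound displaces biotinylated KRpep-2d analogue or RAF1-RBD from mutant KRAS. Both partners at 5-20 nM, 1 h binding at 25° C, then 10 μg/mL Anti-Flag acceptor and streptavidin donor beads for 1 h. IC50 by nonlinear regression of % inhibition.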
# [3] = molecular target: T3, G12V-mutant human KRAS (amino acid residues 1-188) (Homo sapiens, UniProt P01116, G12V); test: KRAS Binding Competition Assay (AlphaScreen; biotinylated KRpep-2d analogue), G12V; conditions: geometric mean, read-out: KRAS GMean IC50 (uM) MUTATION: G12V
# T3 construct: G12V-mutant human KRAS (amino acid residues 1-188) with FLAG tag was purified from E. coli; made in house; host or cells: E. coli
Structure (SMILES),IC50 [1] [µM],IC50 ([2]; KRAS G12D) [µM],IC50 [3] [µM],"Improved KRAS G12D Biochemical Potency of Compounds with Bridged vs Non-Bridged R^1 Groups ([2]; Table 4, fold more potent than the compared compound of WO 2017/172979)","IC50 ([2]; Table 4, comparison with compounds of WO 2017/172979) [µM]"
"CN(C)CCOc1nc(N2C[C@H]3CC[C@@H](C2)N3)c2ccc(-c3cc(O)cc4ccccc34)cc2n1 [P-0023, 4-(4-((1R,5S)-3,8-diazabicyclo[3.2.1]octan-3-yl)-2-(2-(dimethylamino)ethoxy)quinazolin-7-yl)naphthalen-2-ol]",10 to 100,0.0001 to 10,–,P-0023 is about 57 times more potent than Compound 149 in WO 2017/172979.,0.29
"Cc1cccc2cccc(-c3ccc4c(N5C[C@H]6CC[C@@H](C5)N6C(=O)CC#N)nc(OCC56CCCN5CCC6)nc4c3F)c12 [P-0813, 3-((1R,5S)-3-(8-fluoro-7-(8-methylnaphthalen-1-yl)-2-((tetrahydro-1H-pyrrolizin-7a(5H)-yl)methoxy)quinazolin-4-yl)-3,8-diazabicyclo[3.2.1]octan-8-yl)-3-oxopropanenitrile]",0.0001 to 10,–,–,–,–
"Cc1cccc2c(O)nn(-c3ccc4c(N5C[C@H]6CC[C@@H](C5)N6)nc(OC[C@@H]5CCCN5C)nc4c3F)c12 [P-0462, 1-(4-((1R,5S)-3,8-diazabicyclo[3.2.1]octan-3-yl)-8-fluoro-2-(((S)-1-methylpyrrolidin-2-yl)methoxy)quinazolin-7-yl)-7-methyl-1H-indazol-3-ol]",–,10 to 100,10 to 100,–,–
"CN1CCC[C@H]1COc1nc(N2C[C@H]3CC[C@@H](C2)N3)c2ccc(-c3cc4ccccc4s3)cc2n1 [P-0153, 7-(benzo[b]thiophen-2-yl)-4-((1R,5S)-3,8-diazabicyclo[3.2.1]octan-3-yl)-2-(((S)-1-methylpyrrolidin-2-yl)methoxy)quinazoline]",–,10 to 100,100 to 1000,–,–
"CN1CCC[C@H]1COc1nc(N2C[C@H]3CC[C@@H](C2)N3)c2ccc(-c3cc(O)cc(C(F)(F)F)c3)cc2n1 [P-0179, 3-(4-((1R,5S)-3,8-diazabicyclo[3.2.1]octan-3-yl)-2-(((S)-1-methylpyrrolidin-2-yl)methoxy)quinazolin-7-yl)-5-(trifluoromethyl)phenol]",–,10 to 100,100 to 1000,–,–
"CN1CCC[C@H]1COc1nc(N2[C@@H]3CC[C@H]2CN(C(=O)CC#N)C3)c2ccc(-c3cc(O)cc4ccccc34)cc2n1 [P-0325, 3-((1R,5S)-8-(7-(3-hydroxynaphthalen-1-yl)-2-(((S)-1-methylpyrrolidin-2-yl)methoxy)quinazolin-4-yl)-3,8-diazabicyclo[3.2.1]octan-3-yl)-3-oxopropanenitrile]",–,10 to 100,0.0001 to 10,–,–
"CN1CCC[C@H]1COc1nc(N2C[C@H]3CC[C@@H](C2)N3)c2ccc(-c3cc(N)c(Cl)cc3Cl)cc2n1 [P-0157, 5-(4-((1R,5S)-3,8-diazabicyclo[3.2.1]octan-3-yl)-2-(((S)-1-methylpyrrolidin-2-yl)methoxy)quinazolin-7-yl)-2,4-dichloroaniline]",–,10 to 100,100 to 1000,–,–
"COC(=N)CC(=O)N1[C@@H]2CC[C@H]1CN(c1nc(OC[C@@H]3CCCN3C)nc3c(F)c(-c4cc(O)cc5ccccc45)c(Cl)cc13)C2 [P-0450, methyl 3-((1R,5S)-3-(6-chloro-8-fluoro-7-(3-hydroxynaphthalen-1-yl)-2-(((S)-1-methylpyrrolidin-2-yl)methoxy)quinazolin-4-yl)-3,8-diazabicyclo[3.2.1]octan-8-yl)-3-oxopropanimidate]",–,10 to 100,10 to 100,–,–
"CN1CCC[C@H]1COc1nc(N2C[C@H]3CC[C@@H](C2)N3)c2ccc(-c3cc(N)cc(F)c3F)cc2n1 [P-0158, 3-(4-((1R,5S)-3,8-diazabicyclo[3.2.1]octan-3-yl)-2-(((S)-1-methylpyrrolidin-2-yl)methoxy)quinazolin-7-yl)-4,5-difluoroaniline]",–,10 to 100,10 to 100,–,–
"CN1CCC[C@H]1COc1nc(N2C[C@H]3CC[C@@H](C2)N3)c2ccc(-c3ccc4cn[nH]c4c3)cc2n1 [P-0162, 4-((1R,5S)-3,8-diazabicyclo[3.2.1]octan-3-yl)-7-(1H-indazol-6-yl)-2-(((S)-1-methylpyrrolidin-2-yl)methoxy)quinazoline]",–,100 to 1000,100 to 1000,–,–
"CC(=O)Nc1cncc(-c2ccc3c(N4C[C@H]5CC[C@@H](C4)N5)nc(OC[C@@H]4CCCN4C)nc3c2)c1 [P-0160, N-(5-(4-((1R,5S)-3,8-diazabicyclo[3.2.1]octan-3-yl)-2-(((S)-1-methylpyrrolidin-2-yl)methoxy)quinazolin-7-yl)pyridin-3-yl)acetamide]",–,100 to 1000,100 to 1000,–,–

# The next lines start with results.
IC50 [1] [µM],IC50 ([2]; KRAS G12D) [µM],IC50 [3] [µM],Structure (SMILES),"Improved KRAS G12D Biochemical Potency of Compounds with Bridged vs Non-Bridged R^1 Groups ([2]; Table 4, fold more potent than the compared compound of WO 2017/172979)","IC50 ([2]; Table 4, comparison with compounds of WO 2017/172979) [µM]"
10 to 100,0.0001 to 10,–,"O=C1NCCC1COc1nc(N2C[C@H]3CC[C@@H](C2)N3)c2ccc(-c3cc(O)cc4ccccc34)c(F)c2n1 (stereo partly drawn) [P-0767, 3-(((4-((1R,5S)-3,8-diazabicyclo[3.2.1]octan-3-yl)-8-fluoro-7-(3-hydroxynaphthalen-1-yl)quinazolin-2-yl)oxy)methyl)pyrrolidin-2-one]",–,–
10 to 100,0.0001 to 10,–,"NC(=O)COc1nc(N2C[C@H]3CC[C@@H](C2)N3)c2ccc(-c3cc(O)cc4ccccc34)c(F)c2n1 [P-0732, 2-((4-((1R,5S)-3,8-diazabicyclo[3.2.1]octan-3-yl)-8-fluoro-7-(3-hydroxynaphthalen-1-yl)quinazolin-2-yl)oxy)acetamide]",–,–
0.0001 to 10,0.0001 to 10,–,"FC(F)(F)c1cccc2[nH]cc(-c3ccc4c(N5C[C@H]6CC[C@@H](C5)N6)nc(OCC56CCCN5CCC6)nc4c3)c12 [P-0711, 4-((1R,5S)-3,8-diazabicyclo[3.2.1]octan-3-yl)-2-((tetrahydro-1H-pyrrolizin-7a(5H)-yl)methoxy)-7-(4-(trifluoromethyl)-1H-indol-3-yl)quinazoline]",–,–
0.0001 to 10,0.0001 to 10,–,"Fc1cc2c(N3C[C@H]4CC[C@@H](C3)N4)nc(OCC34CCCN3CCC4)nc2c(F)c1-c1c[nH]c2cccc(C3CC3)c12 [P-0730, 4-((1R,5S)-3,8-diazabicyclo[3.2.1]octan-3-yl)-7-(4-cyclopropyl-1H-indol-3-yl)-6,8-difluoro-2-((tetrahydro-1H-pyrrolizin-7a(5H)-yl)methoxy)quinazoline]",–,–
–,0.0001 to 10,0.0001 to 10,"CN1CCCC1COc1nc(N2C[C@H]3CC[C@@H](C2)N3C(=O)NO)c2ccc(-c3cc(O)cc4ccccc34)c(F)c2n1 (stereo partly drawn) [P-0422, (1R,5S)-3-(8-fluoro-7-(3-hydroxynaphthalen-1-yl)-2-((1-methylpyrrolidin-2-yl)methoxy)quinazolin-4-yl)-N-hydroxy-3,8-diazabicyclo[3.2.1]octane-8-carboxamide]",–,–
–,0.0001 to 10,10 to 100,"CN1CCC[C@H]1COc1nc(N2C[C@H]3CC[C@@H](C2)N3)c2cc(Cl)c(-c3cc(O)cc4ccccc34)cc2n1 [P-0043, 4-(4-((1R,5S)-3,8-diazabicyclo[3.2.1]octan-3-yl)-6-chloro-2-(((S)-1-methylpyrrolidin-2-yl)methoxy)quinazolin-7-yl)naphthalen-2-ol]",–,–
–,0.0001 to 10,0.0001 to 10,"CN1CCN(CCCS(=O)(=O)N2[C@@H]3CC[C@H]2CN(c2nc(OCC45CCCN4CCC5)nc4c(F)c(-c5cc(O)cc6ccccc56)ccc24)C3)CC1 [P-0203, 4-(8-fluoro-4-((1R,5S)-8-((3-(4-methylpiperazin-1-yl)propyl)sulfonyl)-3,8-diazabicyclo[3.2.1]octan-3-yl)-2-((tetrahydro-1H-pyrrolizin-7a(5H)-yl)methoxy)quinazolin-7-yl)naphthalen-2-ol]",–,–
–,0.0001 to 10,10 to 100,"Cc1cccc2c1N(c1ccc3c(N4C[C@H]5CC[C@@H](C4)N5)nc(OC[C@@H]4CCCN4C)nc3c1F)CC(O)C2 (stereo partly drawn) [P-0360, 1-(4-((1R,5S)-3,8-diazabicyclo[3.2.1]octan-3-yl)-8-fluoro-2-(((S)-1-methylpyrrolidin-2-yl)methoxy)quinazolin-7-yl)-8-methyl-1,2,3,4-tetrahydroquinolin-3-ol]",–,–
–,0.0001 to 10,0.0001 to 10,"CN1CCC[C@H]1COc1nc(N2[C@@H]3CC[C@H]2CNC3)c2ccc(-c3cc(N)cc4ccccc34)cc2n1 [P-0265, 4-(4-((1R,5S)-3,8-diazabicyclo[3.2.1]octan-8-yl)-2-(((S)-1-methylpyrrolidin-2-yl)methoxy)quinazolin-7-yl)naphthalen-2-amine]",–,–
–,0.0001 to 10,10 to 100,"CN1CCc2c(cccc2Oc2nc(N3C[C@H]4CC[C@@H](C3)N4)c3ccc(-c4cc(O)cc5ccccc45)c(F)c3n2)C1 [P-0623, 4-(4-((1R,5S)-3,8-diazabicyclo[3.2.1]octan-3-yl)-8-fluoro-2-((2-methyl-1,2,3,4-tetrahydroisoquinolin-5-yl)oxy)quinazolin-7-yl)naphthalen-2-ol]",–,–
